PMC9298260, “An Immunomodulatory Peptide Dendrimer Inspired from Glatiramer Acetate” (Angewandte Chemie (International Ed. in English), 2021)

Key:
lymphocytes = test: IL-1Ra in supernatants of lymphocytes (rest of leukocytes after Percoll), ELISA; format: cell-based, human; settings: rest of leukocytes after Percoll gradient, 50-25 µg/mL, 48 h, n = 2
Experimental: Similar donor dependent responses of cytokine release to GA have been reported for IL‐27.[38]
Figure S3. Cytokine level of IL-1Ra in supernatants of monocytes for active dendrimers and analogues evaluated by ELISA assay on primary human monocytes of healthy donors. 5×10^4 cells/200 µL in 96 well plates, were incubated with dendrimers or GA as a control for 48 h in presence or absence of LPS (100 ng/mL), in a range of concentrations (100-12.5 µg/mL) (mean ± SD, n = 3 different experiments).
Figure S4. Cytokine level of IL-1Ra in supernatants of monocytes enriched fraction (a) and the rest of leukocytes (b) for active dendrimers and analogues evaluated by ELISA assay.
Monocytes fraction was separated from whole PBMC by Percoll density gradient centrifugation. 5×10^4 cells/200 µL in 96 well plates were incubated with dendrimers or GA (50-25 µg/mL) as a control for 48 h (mean ± SD, n = 2 different experiments). […]

PBMC = format: cell-based, human; settings: 100-12.5 µg/mL, 24 h, AlamarBlue further 12 h, fluorescence, normalized to untreated, n = 3
Source text: To assess the activity requirements for 1 and 4, we performed a structure–activity relationship (SAR) study on the level of induced IL‐1Ra release measured by immunoassay, which we verified in selected cases at the mRNA level by RT‐qPCR (Figure 2). […]
and centrifuged at the same conditions. PBMC collected from the interface were washed 3 times with supplemented RPMI.
Monocytes purification using magnetic beads labelling Isolation KIT II
Monocytes were purified from whole PBMC by negative selection, all procedures were carried out according to manufacturer protocol. Briefly, the non-monocytes were labeled with a cocktail of biotin-conjugated monoclonal antibodies as a primary labeling reagent. Then as a secondary labeling reagent were used anti-biotin microbeads. The mixture was run through the MACS column (MACS, Miltenyi Biotech) in the magnetic field of a MACS Separator (MACS, Miltenyi Biotech). […]
supplemented with 10% heat-inactivated FBS, 50 μg/mL streptomycin, 50 U/mL penicillin, 2 mM L-glutamine, and 5 μg/mL. […] Then, plates were measured on a Tecan Infinite M1000 Pro plate reader at λex= 560 nm and λem= 590 nm and value normalized to the […]
Figure S1. […] After incubation 50 µl of 50% AlamarBlue was added in supplemented medium for additional 12 h, then fluorescence was measured according to manufacture protocol. […]

[1] = Circular dichroism spectroscopy; format: physicochemical; settings: 100 μg/mL, 8 mM phosphate buffer pH 7.2/7.4
Experimental: In terms of stereochemistry, activity was lost with D‐enantiomers D‐1 and D‐4, similar to the inactivity reported for D‐enantiomeric GA.[2]
Circular dichroism (CD) experiments were measured on a Jasco J-715 Spectropolarimeter. All the experiments were performed using Hellma Suprasil 110-QS 0.1 cm cuvettes. For each peptide, the measurements were performed in phosphate buffer (PB, pH=7.2, 8 mM) and in the presence of 5 mM dodecylphosphocholine. The concentration of the peptides was 100.0 μg/mL and each sample was measured using one accumulation. The scan rate was 10 nm/min, pitch 0.5 nm, response 16 sec and bandwidth 1.0 nm. The nitrogen flow was kept >8.5 L/min. After each measurement, the cuvettes were washed successively with 1 M HCl, milli-Q H2O and PB buffer. The baseline was recorded under the same conditions and subtracted manually.
Figure S12. Circular dichroism spectra of GA, 1 and 4 (100 μg/mL) in 8 mM phosphate buffer at pH 7.4 (a) or in presence of 5 mM dodecylphosphocholine. Percentage of α-helix and β- sheet was processed by Dichroweb using the CONTIN analysis program and reference set 3.
(1 picture or pasted object on this page, not shown here)

(KA)8(KAK)4(KEKA)2KAKEAYCA-NH2 [compound 1, G3 peptide dendrimer]
induction of IL-1Ra in lymphocytes (lymphocytes): did not occur
viability of PBMC / cellular toxicity (PBMC): did not show measurable cellular toxicity
conformation by CD spectra [1]: unordered conformation
